Measured values as given in the NIST ThermoML archive (doi:10.1021/je050509f).

Assay: mn = molality of the nth substance listed, in mol/kg
Conditions: Liquid, Vibrating tube method

[Cl-].[Cl-].[Zn+2] [zinc chloride] + CO
Conditions	mass density [kg/m3]
348.27 K, 19998 kPa, m1 = 0.1348	775.25
348.27 K, 20001 kPa, m1 = 5.367	1160.36
348.27 K, 20003 kPa, m1 = 1.039	851.34
348.27 K, 24987 kPa, m1 = 1.977	930.28
348.27 K, 24989 kPa, m1 = 0.8018	837.48
348.27 K, 24994 kPa, m1 = 0.1348	780.25
348.27 K, 24994 kPa, m1 = 1.039	856.19
348.27 K, 24996 kPa, m1 = 0.4768	810.44
348.27 K, 25001 kPa, m1 = 5.367	1164.74
348.27 K, 29985 kPa, m1 = 0.4768	815.14
348.27 K, 29987 kPa, m1 = 0.8018	842.17
348.27 K, 29990 kPa, m1 = 1.977	934.86
348.27 K, 29998 kPa, m1 = 0.1348	785.01
348.27 K, 30011 kPa, m1 = 5.367	1169.01
348.27 K, 30014 kPa, m1 = 1.039	860.81
348.27 K, 34985 kPa, m1 = 1.977	939.27
348.27 K, 34987 kPa, m1 = 0.4768	819.64
348.27 K, 34988 kPa, m1 = 0.8018	846.66
348.27 K, 34990 kPa, m1 = 1.039	865.23
348.27 K, 34990 kPa, m1 = 5.367	1173.15
348.27 K, 34998 kPa, m1 = 0.1348	789.52
348.27 K, 39984 kPa, m1 = 5.367	1177.19
348.27 K, 39991 kPa, m1 = 1.039	869.48
348.27 K, 39993 kPa, m1 = 1.977	943.53
348.27 K, 39998 kPa, m1 = 0.1348	793.81
348.27 K, 39999 kPa, m1 = 0.8018	850.97
348.27 K, 40007 kPa, m1 = 0.4768	823.94
373.3 K, 523 kPa, m1 = 0.8018	783.25
373.3 K, 527 kPa, m1 = 0.4768	755.9
373.3 K, 527 kPa, m1 = 1.977	876.84
373.3 K, 533 kPa, m1 = 0.1348	725.48
373.3 K, 535 kPa, m1 = 5.367	1112.11
373.3 K, 536 kPa, m1 = 1.039	802.51
373.3 K, 4986 kPa, m1 = 5.367	1117.02
373.3 K, 4988 kPa, m1 = 1.039	808.88
373.3 K, 4990 kPa, m1 = 0.4768	762.64
373.3 K, 4994 kPa, m1 = 0.8018	789.83
373.3 K, 4995 kPa, m1 = 0.1348	732.41
373.3 K, 5003 kPa, m1 = 1.977	882.85
373.3 K, 9984 kPa, m1 = 0.4768	769.58
373.3 K, 9984 kPa, m1 = 0.8018	796.61
373.3 K, 9985 kPa, m1 = 0.1348	739.51
373.3 K, 9986 kPa, m1 = 1.977	889.12
373.3 K, 9995 kPa, m1 = 1.039	815.55
373.3 K, 10002 kPa, m1 = 5.367	1122.33
373.3 K, 14985 kPa, m1 = 0.4768	776
373.3 K, 14990 kPa, m1 = 5.367	1127.43
373.3 K, 15001 kPa, m1 = 0.1348	746.08
373.3 K, 15005 kPa, m1 = 0.8018	802.94
373.3 K, 15009 kPa, m1 = 1.039	821.76
373.3 K, 15009 kPa, m1 = 1.977	895.06
373.3 K, 19986 kPa, m1 = 0.1348	752.14
373.3 K, 19987 kPa, m1 = 0.4768	781.98
373.3 K, 20001 kPa, m1 = 1.039	827.53
373.3 K, 20005 kPa, m1 = 0.8018	808.85
373.3 K, 20008 kPa, m1 = 5.367	1132.37
373.3 K, 20012 kPa, m1 = 1.977	900.64
373.3 K, 24985 kPa, m1 = 0.4768	787.59
373.3 K, 24989 kPa, m1 = 1.039	832.97
373.3 K, 24990 kPa, m1 = 0.8018	814.38
373.3 K, 24992 kPa, m1 = 0.1348	757.83
373.3 K, 25001 kPa, m1 = 1.977	905.94
373.3 K, 25001 kPa, m1 = 5.367	1137.12
373.3 K, 29985 kPa, m1 = 0.1348	763.18
373.3 K, 29988 kPa, m1 = 1.977	910.98
373.3 K, 29993 kPa, m1 = 1.039	838.14
373.3 K, 29994 kPa, m1 = 5.367	1141.72
373.3 K, 29997 kPa, m1 = 0.8018	819.65
373.3 K, 30012 kPa, m1 = 0.4768	792.89
373.3 K, 34983 kPa, m1 = 0.8018	824.61
373.3 K, 34984 kPa, m1 = 1.039	843.03
373.3 K, 34986 kPa, m1 = 5.367	1146.17
373.3 K, 34987 kPa, m1 = 0.4768	797.89
373.3 K, 34997 kPa, m1 = 1.977	915.82
373.3 K, 35008 kPa, m1 = 0.1348	768.23
373.3 K, 39990 kPa, m1 = 1.039	847.71
373.3 K, 39991 kPa, m1 = 0.8018	829.37
373.3 K, 39993 kPa, m1 = 0.1348	773.04
373.3 K, 39995 kPa, m1 = 5.367	1150.53
373.3 K, 39997 kPa, m1 = 1.977	920.45
373.3 K, 40000 kPa, m1 = 0.4768	802.68
398.33 K, 893 kPa, m1 = 0.1348	695.88
398.33 K, 899 kPa, m1 = 5.367	1083.75
398.33 K, 904 kPa, m1 = 1.039	773.5
398.33 K, 905 kPa, m1 = 1.977	848.36
398.33 K, 907 kPa, m1 = 0.8018	754.11
398.33 K, 908 kPa, m1 = 0.4768	726.55
398.33 K, 4981 kPa, m1 = 0.4768	734.09
398.33 K, 4985 kPa, m1 = 1.977	854.8
398.33 K, 4988 kPa, m1 = 0.8018	761.4
398.33 K, 4994 kPa, m1 = 0.1348	703.77
398.33 K, 5002 kPa, m1 = 5.367	1088.78
398.33 K, 5004 kPa, m1 = 1.039	780.59
398.33 K, 9983 kPa, m1 = 0.4768	742.44
398.33 K, 9984 kPa, m1 = 0.1348	712.39
398.33 K, 9984 kPa, m1 = 0.8018	769.52
398.33 K, 9988 kPa, m1 = 5.367	1094.64
398.33 K, 9993 kPa, m1 = 1.039	788.48
398.33 K, 9999 kPa, m1 = 1.977	862.15
398.33 K, 14985 kPa, m1 = 1.039	795.7
398.33 K, 14988 kPa, m1 = 0.1348	720.18
398.33 K, 14993 kPa, m1 = 0.4768	750.05
398.33 K, 14994 kPa, m1 = 0.8018	776.95
398.33 K, 15018 kPa, m1 = 5.367	1100.25
398.33 K, 15019 kPa, m1 = 1.977	868.94
398.33 K, 19982 kPa, m1 = 0.8018	783.77
398.33 K, 19982 kPa, m1 = 1.039	802.38
398.33 K, 19984 kPa, m1 = 0.1348	727.3
398.33 K, 19994 kPa, m1 = 0.4768	757.02
398.33 K, 19996 kPa, m1 = 1.977	875.28
398.33 K, 20003 kPa, m1 = 5.367	1105.62
398.33 K, 24984 kPa, m1 = 1.039	808.61
398.33 K, 24989 kPa, m1 = 5.367	1110.77
398.33 K, 24992 kPa, m1 = 0.4768	763.47
398.33 K, 25003 kPa, m1 = 0.1348	733.89
398.33 K, 25006 kPa, m1 = 0.8018	790.16
398.33 K, 25009 kPa, m1 = 1.977	881.23
398.33 K, 29990 kPa, m1 = 1.977	886.89
398.33 K, 29994 kPa, m1 = 0.8018	796.1
398.33 K, 29996 kPa, m1 = 0.1348	740.01
398.33 K, 29996 kPa, m1 = 1.039	814.47
398.33 K, 29999 kPa, m1 = 5.367	1115.75
398.33 K, 30005 kPa, m1 = 0.4768	769.51
398.33 K, 34992 kPa, m1 = 0.4768	775.14
398.33 K, 34993 kPa, m1 = 0.1348	745.75
398.33 K, 35003 kPa, m1 = 5.367	1120.56
398.33 K, 35010 kPa, m1 = 1.039	819.97
398.33 K, 35011 kPa, m1 = 0.8018	801.72
398.33 K, 35014 kPa, m1 = 1.977	892.27
398.33 K, 39988 kPa, m1 = 1.977	897.37
398.33 K, 39989 kPa, m1 = 0.1348	751.12
398.33 K, 39992 kPa, m1 = 0.8018	807.01
398.33 K, 39994 kPa, m1 = 5.367	1125.22
398.33 K, 39997 kPa, m1 = 1.039	825.19
398.33 K, 40002 kPa, m1 = 0.4768	780.53
